{
  "source": "ChEMBL document CHEMBL6127119",
  "about": "(J Med Chem, 2024)",
  "key": {"Staphylococcus aureus [1]": {"tested_on": "Staphylococcus aureus", "test": "Antibacterial activity against methicillin-susceptible Staphylococcus aureus incubated for 16 to 24 hrs by CLSI based broth microdilution method", "format": "functional", "conditions": "time 16-24 hrs"}, "[2]": {"test": "Volume of distribution at steady state in CD-1 mouse at 10 mg/kg, iv measured for 24 hrs by UPLC analysis", "format": "ADME, organism-based", "conditions": "in vivo, read-out: Vdss"}, "Staphylococcus aureus [3]": {"tested_on": "Staphylococcus aureus", "test": "Antibacterial activity against Staphylococcus aureus Mu50 assessed as fold decrease in MIC at 1:1 ratio of compound and Ac2KAA at […] incubated for 16 to 24 hrs by absorbance based assay relative to control", "format": "functional", "conditions": "dose 128 µg/ml; time 16-24 hrs"}, "[4]": {"test": "MRT (infinity) in CD-1 mouse at 10 mg/kg, iv measured for 24 hrs by UPLC analysis", "format": "ADME, organism-based", "conditions": "in vivo"}, "Staphylococcus aureus [5]": {"tested_on": "Staphylococcus aureus", "test": "Post-antibiotic effect in Staphylococcus aureus MRSA252 assessed as change in bacterial titer at 20 times measured after 2 hrs", "format": "functional"}, "Staphylococcus aureus [6]": {"tested_on": "Staphylococcus aureus", "test": "Post-antibiotic effect in Staphylococcus aureus MRSA252 assessed as time of effect at 10 to 20 times", "format": "functional"}, "[7]": {"test": "AUClast in CD-1 mouse at 10 mg/kg, iv measured for 24 hrs by UPLC analysis", "format": "ADME, organism-based", "conditions": "in vivo"}, "[8]": {"test": "Half life in CD-1 mouse at 10 mg/kg, iv measured for 24 hrs by UPLC analysis", "format": "ADME, organism-based", "conditions": "in vivo"}, "Klebsiella pneumoniae": {"tested_on": "Klebsiella pneumoniae", "test": "Antibacterial activity against Klebsiella pneumoniae clinical isolate incubated for 16 to 24 hrs by CLSI based broth microdilution method", "format": "functional", "conditions": "time 16-24 hrs"}, "[9]": {"test": "Toxicity in BALB/c mouse infected with methicillin-resistant Staphylococcus aureus MRSA252 assessed as survival rate at 10 mg/kg, iv for 7 days", "format": "organism-based", "conditions": "in vivo, 168 h, time 7 day"}, "[10]": {"test": "Clearance in CD-1 mouse at 10 mg/kg, iv measured for 24 hrs by UPLC analysis", "format": "ADME, organism-based", "conditions": "in vivo"}, "Staphylococcus aureus [11]": {"tested_on": "Staphylococcus aureus", "test": "Antibacterial activity against Staphylococcus aureus Mu50 at 1:1 ratio of compound and Ac2KAA at […] incubated for 16 to 24 hrs by absorbance based assay", "format": "functional"}, "Staphylococcus aureus [12]": {"tested_on": "Staphylococcus aureus", "test": "Antibacterial activity against vancomycin-intermediate Staphylococcus aureus incubated for 16 to 24 hrs by CLSI based broth microdilution method", "format": "functional", "conditions": "time 16-24 hrs"}, "Acinetobacter baumannii": {"tested_on": "Acinetobacter baumannii", "test": "Antibacterial activity against Carbapenem-resistant Acinetobacter baumannii clinical isolate incubated for 16 to 24 hrs by CLSI based broth microdilution method", "format": "functional", "conditions": "time 16-24 hrs"}, "Enterococcus faecium [13]": {"tested_on": "Enterococcus faecium", "test": "Antibacterial activity against vancomycin-resistant Enterococcus faecium harboring VanB phenotype incubated for 16 to 24 hrs by CLSI based broth microdilution method", "format": "functional", "conditions": "time 16-24 hrs"}, "Staphylococcus aureus [14]": {"tested_on": "Staphylococcus aureus", "test": "Induction of cytoplasmic membrane permeabilization in methicillin-resistant Staphylococcus aureus MRSA252 at […] measured for 40 mins by PI/NPN staining based analysis", "format": "functional, organism-based", "conditions": "dose 128.0 µg/ml"}, "[15]": {"test": "Toxicity in BALB/c mouse infected with methicillin-resistant Staphylococcus aureus MRSA252 assessed as survival rate at 20 mg/kg, iv for 7 days", "format": "organism-based", "conditions": "in vivo, 168 h, time 7 day"}, "Staphylococcus aureus [16]": {"tested_on": "Staphylococcus aureus", "test": "Post-antibiotic effect in Staphylococcus aureus MRSA252 assessed as change in bacterial titer at 10 times measured after 2 hrs", "format": "functional"}, "Enterococcus faecium [17]": {"tested_on": "Enterococcus faecium", "test": "Antibacterial activity against vancomycin-resistant Enterococcus faecium harboring VanM phenotype incubated for 16 to 24 hrs by CLSI based broth microdilution method", "format": "functional", "conditions": "time 16-24 hrs"}, "[18]": {"test": "AUC (infinity) in CD-1 mouse at 10 mg/kg, iv measured for 24 hrs by UPLC analysis", "format": "ADME, organism-based", "conditions": "in vivo"}, "Escherichia coli": {"tested_on": "Escherichia coli", "test": "Antibacterial activity against Escherichia coli AB1157 incubated for 16 to 24 hrs by CLSI based broth microdilution method", "format": "functional", "conditions": "time 16-24 hrs"}, "Pseudomonas aeruginosa": {"tested_on": "Pseudomonas aeruginosa", "test": "Antibacterial activity against Pseudomonas aeruginosa PAO1 incubated for 16 to 24 hrs by CLSI based broth microdilution method", "format": "functional", "conditions": "time 16-24 hrs"}, "Enterococcus faecalis": {"tested_on": "Enterococcus faecalis", "test": "Induction of inner membrane permeabilization in Enterococcus faecalis ATCC29212 at […] measured for 20 mins by DiSC3(5) staining based analysis", "format": "functional, organism-based", "conditions": "dose 128.0 µg/ml"}, "Enterococcus faecium [19]": {"tested_on": "Enterococcus faecium", "test": "Antibacterial activity against vancomycin-resistant Enterococcus faecium harboring VanA phenotype incubated for 16 to 24 hrs by CLSI based broth microdilution method", "format": "functional", "conditions": "time 16-24 hrs"}, "Staphylococcus aureus [20]": {"tested_on": "Staphylococcus aureus", "test": "Induction of drug resistance in vancomycin-sensitive Staphylococcus aureus MRSA252 assessed as fold increase in MIC measured after 16 days of serial passages by broth microdilution method", "format": "functional", "conditions": "time 16 day"}},
  "note": "Active and inactive are the calls of the source. The calls are words filed in the database; no cut-off is given here.",
  "data": [
    {"compound": "CC(C)C[C@@H](N)C(=O)N[C@H]1C(=O)N[C@@H](CC(N)=O)C(=O)N[C@H]2C(=O)N[C@H]3C(=O)N[C@H](C(=O)N[C@H](C(=O)O)c4cc(O)cc(O)c4-c4cc3ccc4O)[C@H](O)c3ccc(c(Cl)c3)Oc3cc2cc(c3O[C@@H]2O[C@H](CO)[C@@H](O)[C@H](O)[C@H]2O[C@H]2C[C@](C)(N)[C@H](O)[C@H](C)O2)Oc2ccc(cc2Cl)[C@H]1O", "values": [
      {"measurement": "MIC", "setting": "Staphylococcus aureus [1]", "value": 0.5, "unit": "µg/mL"},
      {"measurement": "Vd", "setting": "[2]", "value": 0.919, "unit": "L/kg"},
      {"measurement": "fold change (FC)", "setting": "Staphylococcus aureus [3]", "value": ">32"},
      {"measurement": "MRT inf", "setting": "[4]", "value": 33.6, "unit": "min"},
      {"measurement": "Activity", "setting": "Staphylococcus aureus [5]", "value": 0.2, "unit": "log10CFU/ml"},
      {"measurement": "Time", "setting": "Staphylococcus aureus [6]", "value": 1, "unit": "h"},
      {"measurement": "AUC(0-t) at 24 h", "setting": "[7]", "value": 5210, "unit": "ng·h/mL"},
      {"measurement": "half-life", "setting": "[8]", "value": 31.8, "unit": "min"},
      {"measurement": "MIC", "setting": "Klebsiella pneumoniae", "value": "> 128", "unit": "µg/mL"},
      {"measurement": "Activity", "setting": "[9]", "value": 75, "unit": "%"},
      {"measurement": "clearance", "setting": "[10]", "value": 27.3, "unit": "mL/min/kg"},
      {"measurement": "MIC", "setting": "Staphylococcus aureus [11]", "value": "> 128", "unit": "µg/mL"},
      {"measurement": "MIC", "setting": "Staphylococcus aureus [12]", "value": 2, "unit": "µg/mL"},
      {"measurement": "MIC", "setting": "Acinetobacter baumannii", "value": "> 128", "unit": "µg/mL"},
      {"measurement": "MIC", "setting": "Enterococcus faecium [13]", "value": 128, "unit": "µg/mL"},
      {"measurement": "Activity", "setting": "Staphylococcus aureus [14]", "value": "inactive"},
      {"measurement": "Activity", "setting": "[15]", "value": 62.5, "unit": "%"},
      {"measurement": "Activity", "setting": "Staphylococcus aureus [16]", "value": 1, "unit": "log10CFU/ml"},
      {"measurement": "MIC", "setting": "Enterococcus faecium [17]", "value": 128, "unit": "µg/mL"},
      {"measurement": "AUC(0-inf)", "setting": "[18]", "value": 6300, "unit": "ng·h/mL"},
      {"measurement": "MIC", "setting": "Escherichia coli", "value": "> 128", "unit": "µg/mL"},
      {"measurement": "MIC", "setting": "Pseudomonas aeruginosa", "value": "> 128", "unit": "µg/mL"},
      {"measurement": "Activity", "setting": "Enterococcus faecalis", "value": "inactive"},
      {"measurement": "MIC", "setting": "Enterococcus faecium [19]", "value": "> 128", "unit": "µg/mL"},
      {"measurement": "fold change (FC)", "setting": "Staphylococcus aureus [20]", "value": 4}
    ]}
  ]
}
